According to publication PMC5589637, “New perspectives of cobalt tris(bipyridine) system: anti-cancer effect and its collateral sensitivity towards multidrug-resistant (MDR) cancers” (Oncotarget, 2017):

How the values were obtained:
Atg7^+/+ wild-type MEFs = assay: MTT cytotoxicity, Atg7 wild-type MEFs; format: cell-based, mouse; conditions: 72 h
Excerpt: All cells were obtained from the American Type Culture Collection (Rockville, MD, USA) unless otherwise specified. Immortalized wild-type and Atg7-deficient mouse embryonic fibroblasts (MEFs) were kindly provided by Professor Masaaki Komatsu (Juntendo University, School of Medicine, Japan). Taxol-resistant types of MCF-7, HCT-8, A549 cancers cells and cisplatin-resistant SGC7901 cancer cells were purchased from KeyGEN BioTECH, China. Cisplatin-sensitive or –resistant A2780, OV2008 and C13 cancer cells were kindly provided by Prof. Benjamin Tsang (Department of Obstetrics and Gynecology and Department of Cellular and Molecular Medicine, University of Ottawa, Canada). HCT116 p53^+/+ and p53^−/− isogenic human colon cancer cells were kindly provided by Professor Bert Vogelstein (Ludwig Center at Johns Hopkins, Howard Hughes Medical Institute, USA). […]
All tested compounds were dissolved in DMSO at a final concentration of 50 mmol/L and stored at −20°C before use. Cytotoxicity was assessed by using the 3-(4,5-dimethylthiazol-2-yl)-2, 5-diphenyltetrazolium bromide (MTT) (5.0 mg/ml) assay as previously described. […] A570 nm was then determined in each well on the next day. The percentage of cell viability was calculated using the following formula: Cell viability (%) = Atreated/Acontrol × 100. […]

[1] = system: OV2008 (cisplatin-sensitive) cells; assay: MTT cytotoxicity, OV2008 (cisplatin-sensitive); format: cell-based; conditions: 72 h, read-out: IC50 value, cisplatin-sensitive cancer, OV2008
Excerpt: (§1) All cells were obtained from the American Type Culture Collection (Rockville, MD, USA) unless otherwise specified. Immortalized wild-type and Atg7-deficient mouse embryonic fibroblasts (MEFs) were kindly provided by Professor Masaaki Komatsu (Juntendo University, School of Medicine, Japan). Taxol-resistant types of MCF-7, HCT-8, A549 cancers cells and cisplatin-resistant SGC7901 cancer cells were purchased from KeyGEN BioTECH, China. Cisplatin-sensitive or –resistant A2780, OV2008 and C13 cancer cells were kindly provided by Prof. Benjamin Tsang (Department of Obstetrics and Gynecology and Department of Cellular and Molecular Medicine, University of Ottawa, Canada). HCT116 p53^+/+ and p53^−/− isogenic human colon cancer cells were kindly provided by Professor Bert Vogelstein (Ludwig Center at Johns Hopkins, Howard Hughes Medical Institute, USA). All media were supplemented with 10% fetal bovine serum and antibiotics penicillin (50 U/ml) and streptomycin (50 μg/ml; Invitrogen, Paisley, Scotland, UK). All cell cultures were incubated at 37°C in a 5% humidified CO2 incubator.
(§2) All tested compounds were dissolved in DMSO at a final concentration of 50 mmol/L and stored at −20°C before use. Cytotoxicity was assessed by using the 3-(4,5-dimethylthiazol-2-yl)-2, 5-diphenyltetrazolium bromide (MTT) (5.0 mg/ml) assay as previously described. Briefly, 4×10^3 cells per well were seeded in 96-well plates before drug treatments. After overnight culture, the cells were then exposed to different concentrations of selected compounds ([…]) for 72 hours. Cells without drug treatment were used as control. Subsequently, MTT (10 μL) solution was added to each well and incubated at 37°C for 4 hours followed by the addition of 100 μL solubilization buffer (10%SDS in 0.01 mol/L HCl) and overnight incubation. A570 nm was then determined in each well on the next day. The percentage of cell viability was calculated using the following formula: Cell viability (%) = Atreated/Acontrol × 100. Data were obtained from three independent experiments.

[2] = system: LLC-1 (mouse lung cancer) cells; assay: MTT cytotoxicity assay, LLC-1; format: cell-based; conditions: LLC-1, MTT, 72 h
Procedure: as §2

[3] = system: C13 (cisplatin-resistant) cells; assay: MTT cytotoxicity, C13 (cisplatin-resistant); format: cell-based
Excerpt: as §1, §2

[4] = system: A549 taxol-resistant cancer cells; assay: MTT cytotoxicity, taxol-resistant A549; format: cell-based
Excerpt: as §1, §2

[5] = system: MCF-7 taxol-resistant cancer cells; assay: MTT cytotoxicity, taxol-resistant MCF-7; format: cell-based
Excerpt: as §1, §2

H1299 lung cancer cells = assay: Cell invasion assay (ECMatrix chamber); format: cell-based, human; conditions: H1299, 72 h, sub-lethal doses, OD 560 nm
Procedure: The H1299 cancer cell invasion assay was performed in a Cell Invasion Chamber, a 24-well tissue culture plate with cell culture inserts that contain an 8 μm pore size polycarbonate membrane over a thin layer of dried ECMatrix^TM (CHEMICON). H1299 cells (15000 cells/well) were re-suspended in serum-free medium and incubated in an invasion chamber insert with different concentrations of cobalt complex 2 for 72 hours, while the lower chamber contained medium with 10% FBS. The cells invaded through the ECM layer to the bottom of the polycarbonate membrane were labelled with Cell Stain provided in the kit for 20 min at room temperature. The non-invading cells were gently removed from the interior of the inserts by using a cotton-tipped swab. The number of invaded cells was counted through the microscope and quantified by dissolving stained cells in 10% acetic acid (200 μL/well). The colorimetric reading of the solute mixture was determined by spectrophotometer at OD 560 nm.

[6] = system: A2780 cisplatin-sensitive cancer cells; assay: MTT cytotoxicity, cisplatin-sensitive A2780; format: cell-based; conditions: 72 h
Excerpt: as §1, §2

Q: With Cc1ccnc(-c2cc(C)ccn2)c1.Cc1ccnc(-c2cc(C)ccn2)c1.Cc1ccnc(-c2cc(C)ccn2)c1.F[P-](F)(F)(F)(F)F.F[P-](F)(F)(F)(F)F.F[P-](F)(F)(F)(F)F.[Co+3] [complex 2, [Co^III(4,4’-Me2-bpy)3](PF6)3] as the compound, how does the IC50 (Atg7^+/+ wild-type MEFs) read?
A: Its IC50 is 4.84 µM.

Q: And the IC50 [1]?
A: Its IC50 is 7.62 µM.

Q: And the IC50 [2]?
A: The IC50 was 3.39 µM.

Q: And the IC50 ([3]; C13 (cisplatin-resistant), MTT, 72 h, read-out: IC50 value, cisplatin-resistant cancer, C13)?
A: The IC50 was 7.59 µM.

Q: What about the “Resistant Factor, OV2008/C13 pair” value ([3]; C13 (resistant) IC50 over OV2008 (sensitive) IC50) of the same compound?
A: Its value is 1.0.

Q: What about the IC50 ([4]; A549 taxol-resistant, MTT, 72 h) of the same compound?
A: The IC50 was 2.85 µM.

Q: What about the “Resistant Factor, A549” value ([4]; IC50 of taxol-resistant cells over IC50 of taxol-sensitive cells, A549) of the same compound?
A: The value was 0.25.

Q: And the “Resistant Factor, MCF-7” value ([5]; IC50 of taxol-resistant cells over IC50 of taxol-sensitive cells, MCF-7)?
A: The value was 0.68.

Q: And the IC50 ([5]; MCF-7 taxol-resistant, MTT, 72 h)?
A: The IC50 was 2.71 µM.

Q: And the “cell invasion (absorbance signal of invaded cells)” value (H1299 lung cancer cells)?
A: Its value is “dose-dependently decrease the absorbance signal”.

Q: And the IC50 [6]?
A: The IC50 was 12.3 µM.
